Data from patent publication US7906522B2, “2-aminoquinazoline derivatives” (Kyowa Hakko Kirin Co., Ltd, priority 2005, dated 2011).

Target: T1, Activated human p38α (Homo sapiens, UniProt Q16539)
T1 construct: purchased Upstate Biotechnology Inc. 14-251
Test: p38MAP kinase inhibition test
Type: biochemical
Conditions: at a concentration of 1 μmol/L; substrate myelin basic protein, ATP 20 μmol/L, [γ-32P]ATP; read-out: enzyme inhibitory activity
Method in brief: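 Radiometric kinase assay with myelin basic protein (20 μg/assay) as substrate, 20 μmol/L ATP plus [γ-32P]ATP, MOPS pH 7.2 with MgCl2 18.75 mmol/L. Reaction run 15 min at 30° C., stopped with phosphoric acid; 32P-MBP captured on phosphocellulose and counted by scintillation.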

T1 sequence (Q16539 whole entry): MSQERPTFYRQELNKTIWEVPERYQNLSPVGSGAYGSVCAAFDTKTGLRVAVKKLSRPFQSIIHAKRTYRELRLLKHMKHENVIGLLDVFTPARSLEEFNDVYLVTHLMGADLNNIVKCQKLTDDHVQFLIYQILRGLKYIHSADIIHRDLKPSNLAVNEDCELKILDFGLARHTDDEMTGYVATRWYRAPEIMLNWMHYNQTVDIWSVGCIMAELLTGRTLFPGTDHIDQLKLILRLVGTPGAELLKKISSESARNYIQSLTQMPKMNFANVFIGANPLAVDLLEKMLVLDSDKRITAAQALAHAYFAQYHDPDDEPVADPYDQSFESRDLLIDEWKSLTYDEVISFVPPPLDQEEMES

| inhibition at 1 µM [%] | SMILES |
| --- | --- |
| ≥ 50 | COc1cc2nc(NC(C)C)ncc2cc1-c1ccc(F)cc1F [Compound 3, 6-(2,4-Difluorophenyl)-2-isopropylamino-7-methoxyquinazoline] |
| ≥ 50 | CC(C)Nc1ncc2cc(-c3ccccc3Cl)c(OCCC(=O)O)cc2n1 [Compound 30, 7-(2-Carboxyethyloxy)-6-(2-chlorophenyl)-2-isopropylaminoquinazoline] |
| ≥ 50 | CC(C)Nc1ncc2cc(-c3ccccc3Cl)c(OCc3cccc(C(=O)O)c3)cc2n1 [Compound 29, 7-(3-Carboxyphenylmethyloxy)-6-(2-chlorophenyl)-2-isopropylaminoquinazoline] |
| ≥ 50 | CCOC(=O)/C=C/c1c(OC)c(-c2ccccc2Cl)cc2cnc(NC(C)C)nc12 [Compound 73, 6-(2-Chlorophenyl)-8-[(E)-2-(ethoxycarbonyl)ethenyl]-7-methoxy-2-(isopropylamino)quinazoline] |
| ≥ 50 | CC(C)Nc1ncc2cc(C(=O)c3ccccc3Cl)c(O)cc2n1 [Compound 125, 6-(2-Chlorobenzoyl)-7-hydroxy-2-(isopropylamino)quinazoline] |
| ≥ 50 | CC(C)Nc1ncc2cc(-c3cccc(NC(=O)c4ccnc(N5CCOCC5)c4)c3)ccc2n1 [Compound 257, 2-Isopropylamino-6-{3-[(2-morpholinopyridin-4-yl)carbonylamino]phenyl}quinazoline] |
| ≥ 50 | CC(C)Nc1ncc2cc(-c3cccc(O)c3)c(O)cc2n1 [Compound 244, 7-Hydroxy-6-(3-hydroxyphenyl)-2-(isopropylamino)quinazoline] |
| ≥ 50 | CC(C)Nc1ncc2cc(-c3cccc(NC(=O)C4(C)CC4)c3)c(O)cc2n1 [Compound 299, 7-Hydroxy-2-isopropylamino-6-{3-[(1-methylcyclopropyl)carbonylamino]phenyl}quinazoline] |
| ≥ 50 | COCOc1c(-c2ccccc2Cl)cc2cnc(NC(C)C)nc2c1-c1ccc(C(=O)O)cc1 [Compound 91, 8-(4-Carboxyphenyl)-6-(2-chlorophenyl)-2-isopropylamino-7-(methoxymethyloxy)quinazoline] |
| ≥ 50 | COc1cc2nc(N[C@@H](C)c3ccccc3)ncc2cc1-c1ccccc1Cl [Compound 9, (S)-6-(2-Chlorophenyl)-7-methoxy-2-[(1-phenylethyl)amino]quinazoline] |
| ≥ 50 | COc1cc2nc(NC(C)C)ncc2cc1-c1ccccc1CO [Compound 182, 6-[2-(Hydroxymethyl)phenyl]-2-isopropylamino-7-methoxyquinazoline] |
| ≥ 50 | CC(C)Nc1ncc2cc(-c3ccccc3Cl)c(O)cc2n1 [Compound 19, 6-(2-Chlorophenyl)-7-hydroxy-2-isopropylaminoquinazoline] |
| ≥ 50 | COc1cc2nc(NC(C)C)ncc2cc1-c1cccc(NC(=O)c2ccc(C(F)(F)F)cc2)c1 [Compound 213, 2-Isopropylamino-7-methoxy-6-{3-[(4-trifluoromethylphenyl)carbonylamino]phenyl}quinazoline] |
| ≥ 50 | COc1cc2nc(NC(C)C)ncc2cc1-c1cccc(NC(=O)C2CC2)c1 [Compound 220, 6-[3-(Cyclopropylcarbonylamino)phenyl]-2-isopropylamino-7-methoxyquinazoline] |
| ≥ 50 | COc1cc2nc(N[C@@H](C)CO)ncc2cc1-c1ccccc1C [Compound 165, (S)-2-(1-Hydroxy-2-propylamino)-7-methoxy-6-(2-methylphenyl)quinazoline] |
| ≥ 50 | CC(C)Nc1ncc2cc(-c3cccc([N+](=O)[O-])c3)c(OCc3ccccc3)cc2n1 [Compound 282, 7-Benzyloxy-2-isopropylamino-6-(3-nitrophenyl)quinazoline] |

| inhibition at 1 µM [%] | SMILES |
| --- | --- |
| ≥ 50 | CC(C)Nc1ncc2cc(-c3ccccc3Cl)c3oc(C(C)(C)O)cc3c2n1 [Compound 112, 6-(2-Chlorophenyl)-8-(1-hydroxy-1-methylethyl)-2-(isopropylamino)furo[2,3-h]quinazoline] |
| ≥ 50 | COc1cc2nc(NC(C)C)ncc2cc1-c1ccccc1C(F)(F)F [Compound 192, 2-Isopropylamino-7-methoxy-6-(2-trifluoromethylphenyl)quinazoline] |
| ≥ 50 | COc1cc2nc(NC(C)(C)C)ncc2cc1-c1ccccc1C [Compound 167, 2-(tert-Butylamino)-7-methoxy-6-(2-methylphenyl)quinazoline] |
| ≥ 50 | COc1cc2nc(NC(C)C)ncc2cc1-c1cc([N+](=O)[O-])ccc1CO [Compound 223, 6-(2-Hydroxymethyl-5-nitrophenyl)-2-isopropylamino-7-methoxyquinazoline] |
| ≥ 50 | COc1cc2nc(NC(C)C)ncc2cc1C(=O)c1ccccc1C [Compound 113, 2-Isopropylamino-7-methoxy-6-(2-methylbenzoyl)quinazoline] |
| ≥ 50 | CCOC(=O)COc1c(-c2ccccc2Cl)cc2cnc(NC(C)C)nc2c1C(C)=O [Compound 79, 8-Acetyl-6-(2-chlorophenyl)-7-(ethoxycarbonylmethyloxy)-2-(isopropylamino)quinazoline] |
| ≥ 50 | CC(C)Nc1ncc2cc(-c3ccccc3Cl)c(O)c(-c3cccc(C(=O)O)c3)c2n1 [Compound 94, 8-(3-Carboxyphenyl)-6-(2-chlorophenyl)-7-hydroxy-2-(isopropylamino)quinazoline] |
| ≥ 50 | COc1cc2nc(NC(C)C)ncc2cc1-c1cccc(OCc2ccccc2)c1 [Compound 195, 6-[3-(Benzyloxy)phenyl]-2-isopropylamino-7-methoxyquinazoline] |
| ≥ 50 | COc1cc2nc(N[C@H]3CC[C@H](N)CC3)ncc2cc1-c1ccccc1Cl [Compound 5, 2-(trans-4-Aminocyclohexylamino)-6-(2-chlorophenyl)-7-methoxyquinazoline] |
| ≥ 50 | CC(C)Nc1ncc2cc(-c3ccccc3Cl)c(-c3cccc(Cl)c3)cc2n1 [Compound 43, 6-(2-Chlorophenyl)-7-(3-chlorophenyl)-2-isopropylaminoquinazoline] |
| ≥ 50 | CC(C)Nc1ncc2cc(-c3ccccc3Cl)c(OCc3ccccc3)cc2n1 [Compound 27, 7-Benzyloxy-6-(2-chlorophenyl)-2-isopropylaminoquinazoline] |
| ≥ 50 | CNC(=O)Nc1cccc(-c2cc3cnc(NC(C)C)nc3cc2OC)c1 [Compound 212, 2-Isopropylamino-7-methoxy-6-[3-(3-methylureido)phenyl]quinazoline] |
| ≥ 50 | CC(C)Nc1ncc2cc(-c3ccccc3Cl)c(O)c(-c3ccccc3F)c2n1 [Compound 100, 6-(2-Chlorophenyl)-8-(2-fluorophenyl)-7-hydroxy-2-(isopropylamino)quinazoline] |
| ≥ 50 | CC(C)Nc1ncc2cc(C(=O)c3cccc(Cl)c3)c(O)cc2n1 [Compound 120, 6-(3-Chlorobenzoyl)-7-hydroxy-2-(isopropylamino)quinazoline] |
| ≥ 50 | COc1cc2nc(NC(C)C)ncc2cc1-c1cccc(F)c1 [Compound 204, 6-(3-Fluorophenyl)-2-isopropylamino-7-methoxyquinazoline] |
| ≥ 50 | COc1cc2nc(NC3CCN(S(C)(=O)=O)CC3)ncc2cc1-c1ccccc1C(=O)O [Compound 242, 6-(2-Carboxyphenyl)-7-methoxy-2-[1-(methylsulfonyl)piperidin-4-ylamino]quinazoline] |
